≈ marks a conversion by molar mass, not a printed value.
Columns and labels:
Format in all cases: cell-based
Staphylococcus aureus = assay: Minimum inhibitory concentration (MIC) in vitro, agar dilution method, quality control strain; settings: Staphylococcus aureus, ATCC27853
Excerpt: (§1) Hydrates Samples: • The 1/2 hydrates prepared according to Example 2; • Content (purity % wt): 99.0%; • The 1/12 hydrates prepared according to Example 253; • Content (purity % wt): 98.9%; • The 2/7 hydrates prepared according to Example 106; • Content (purity % wt): 98.8%; • The 2/5 hydrates prepared according to Example 162; • Content (purity % wt): 99.0%; • The 3/4 hydrates prepared according to Example 337; • Content (purity % wt): 98.8%; • Preparation: dissolved in DMSO, and further diluted with sterile distilled water to desired concentration. • The hydrates samples were supplied by Sichuan Beilike Biotechnology LTD.
(§2) Anhydrous Sample: • The anhydrous compounds prepared according to Example 1. • Content (purity % wt): 98.6%; • Preparation: dissolved in DMSO, and further diluted with sterile distilled water to desired concentration; • The anhydrous sample was supplied by Sichuan Beilike Biotechnology LTD.
(§3) Control Samples • Vancomycin: provided by Sichuan Beilike Biotechnology LTD, purchased from Eli Lilly Japan K.K. • Lot No.: WM16151 (production date: Apr. 10, 2007, expiration date: Apr. 9, 2009). • Specification: 500 mg/bottle; solubility (physicochemical properties): soluble in water. • Linezolid (LZ): provided by Sichuan Beilike Biotechnology LTD.
(§4) Bacteria Strains • Clinically isolated strains: clinically isolated bacterial pathogens collected in Sichuan and Beijing areas from March 2007 to May 2008. • Species include: Staphylococcus aureus MRSA, Staphylococcus aureus MSSA, S. epidermidis MRSE, S. epidermidis MSSE, E. feacalis, and E. feacium, a total of 51 strains. • Quality control strains: Staphylococcus aureus […] strain kept in Sichuan Industrial Institute of Antibiotics, purchased from the medical testing center of the Ministry of Health, China.
(§5) Experimental Method: • Measurement of the minimum inhibitory concentration (MIC) in vitro: • The minimum inhibitory concentration (MIC) of each test sample against test strains was measured by using the agar dilution method recommended by the U.S. National Committee for Clinical Laboratory Standards (CLSI/NCCIs).
(§6) Based on the CLSI/NCCL's testing standard with respect to vancomycin and linezolid (see Table 6), the minimum inhibitory concentration (MIC) values of every strain were reported, and the MIC50 (the concentration that inhibits 50% of the different strains of bacteria), MIC90 (the concentration that inhibits 90% of the different strains of bacteria), and MICrange (the range of the MIC value of the tested strains) were observed.

E. feacium = assay: Minimum inhibitory concentration (MIC) in vitro, agar dilution method
Excerpt: as §1, §2, §3, §4, §5, §6

E. feacalis = assay: as above
Excerpt: as §1, §2, §3, §4, §5, §6

[1] = test system: Staphylococcus aureus MRSA; assay: as above
Excerpt: as §1, §2, §3, §4, §5, §6

S. epidermidis MSSE = assay: as above
Excerpt: as §1, §2, §3, §4, §5, §6

S. epidermidis MRSE = assay: as above
Excerpt: as §1, §2, §3, §4, §5, §6

[2] = test system: Staphylococcus aureus MSSA; assay: as above
Excerpt: as §1, §2, §3, §4, §5, §6

[3] = Staphylococcus epidermidis, MRSE

Compound `CN[C@H](CC(C)C)C(=O)N[C@H]1C(=O)N[C@@H](CC(N)=O)C(=O)N[C@H]2C(=O)N[C@H]3C(=O)N[C@H](C(=O)N[C@H](C(=O)O)c4cc(O)cc(O)c4-c4cc3ccc4O)[C@H](O)c3ccc(c(Cl)c3)Oc3cc2cc(c3O[C@@H]2O[C@H](CO)[C@@H](O)[C@H](O)[C@H]2O[C@H]2C[C@](C)(N)[C@H](O)[C@H](C)O2)Oc2ccc(cc2Cl)[C@H]1O` [Vancomycin, reference compound] has an MIC (Staphylococcus aureus) of 1 µg/mL (≈ 0.69 µM), an MIC50 (E. feacium) of 4 µg/mL (≈ 2.76 µM) and an MIC90 (E. feacium) of 8 µg/mL (≈ 5.52 µM). The MICrange (E. feacium; E. feacium (5 strains), clinically isolated) was 2 to 8 µg/mL, the MIC (E. feacium; strain Efm 98 (Table 8 No. 21)) was 4 µg/mL (≈ 2.76 µM) and the MIC (E. feacium; strain Efm 171 (Table 8 No. 25)) was 8 µg/mL (≈ 5.52 µM). The MIC (E. feacium; strain Efm 197 (Table 8 No. 22)) was 4 µg/mL (≈ 2.76 µM), the MIC (E. feacium; strain Efm N3 (Table 8 No. 23)) was 2 µg/mL (≈ 1.38 µM) and the MIC (E. feacium; strain Efm N4 (Table 8 No. 24)) was 8 µg/mL (≈ 5.52 µM). The MIC50 (E. feacalis) was 1 µg/mL (≈ 0.69 µM), the MIC90 (E. feacalis) was 2 µg/mL (≈ 1.38 µM) and the MICrange (E. feacalis; E. feacalis (5 strains), clinically isolated) was 0.25 to 2 µg/mL. For the same compound, the MIC (E. feacalis; strain Efa 54 (Table 8 No. 20)) was 1 µg/mL (≈ 0.69 µM), the MIC (E. feacalis; strain Efa 116 (Table 8 No. 16)) was 0.5 µg/mL (≈ 0.345 µM) and the MIC (E. feacalis; strain Efa 907 (Table 8 No. 19)) was 1 µg/mL (≈ 0.69 µM). It also gave an MIC (E. feacalis; strain Efa 3006 (Table 8 No. 18)) of 2 µg/mL (≈ 1.38 µM), an MIC (E. feacalis; strain Efa 33748 (Table 8 No. 17)) of 0.25 µg/mL (≈ 0.173 µM) and an MICrange ([1]; S. MRSA (10 strains), clinically isolated) of 0.5 to 1 µg/mL. The MIC50 ([1]; Staphylococcus aureus, MRSA) was 1 µg/mL (≈ 0.69 µM), the MIC90 ([1]; Staphylococcus aureus, MRSA) was 1 µg/mL (≈ 0.69 µM) and the MIC ([1]; Staphylococcus aureus, MRSA, strain S. MRSA 29 (Table 7 No. 15)) was 0.5 µg/mL (≈ 0.345 µM). The MIC ([1]; Staphylococcus aureus, MRSA, strain S. MRSA 101 (Table 7 No. 14)) was 0.5 µg/mL (≈ 0.345 µM), the MIC ([1]; Staphylococcus aureus, MRSA, strain S. MRSA 201 (Table 7 No. 13)) was 1 µg/mL (≈ 0.69 µM) and the MIC ([1]; Staphylococcus aureus, MRSA, strain S. MRSA B27 (Table 7 No. 21)) was 1 µg/mL (≈ 0.69 µM). It also gave an MIC ([1]; Staphylococcus aureus, MRSA, strain S. MRSA B105 (Table 7 No. 17)) of 1 µg/mL (≈ 0.69 µM), an MIC ([1]; Staphylococcus aureus, MRSA, strain S. MRSA B143 (Table 7 No. 19)) of 0.5 µg/mL (≈ 0.345 µM) and an MIC ([1]; Staphylococcus aureus, MRSA, strain S. MRSA B151 (Table 7 No. 20)) of 1 µg/mL (≈ 0.69 µM). The MIC ([1]; Staphylococcus aureus, MRSA, strain S. MRSA B164 (Table 7 No. 16)) was 1 µg/mL (≈ 0.69 µM), the MIC ([1]; Staphylococcus aureus, MRSA, strain S. MRSA B199 (Table 7 No. 22)) was 1 µg/mL (≈ 0.69 µM) and the MIC ([1]; Staphylococcus aureus, MRSA, strain S. MRSA B617 (Table 7 No. 18)) was 5 µg/mL (≈ 3.45 µM). It also gave an MICrange (S. epidermidis MSSE; S. ep MSSE (10 strains), clinically isolated) of 0.06 to 1 µg/mL, an MIC50 (S. epidermidis MSSE; Staphylococcus epidermidis) of 0.5 µg/mL (≈ 0.345 µM) and an MIC90 (S. epidermidis MSSE; Staphylococcus epidermidis) of 1 µg/mL (≈ 0.69 µM). The MIC (S. epidermidis MSSE; Staphylococcus epidermidis, strain S. ep MSSE87 (Table 7 No. 23)) was 0.125 µg/mL (≈ 0.0863 µM), the MIC (S. epidermidis MSSE; Staphylococcus epidermidis, strain S. ep MSSE88 (Table 8 No. 5)) was 1 µg/mL (≈ 0.69 µM) and the MIC (S. epidermidis MSSE; Staphylococcus epidermidis, strain S. ep MSSE113 (Table 7 No. 24)) was 0.5 µg/mL (≈ 0.345 µM). The MIC (S. epidermidis MSSE; Staphylococcus epidermidis, strain S. ep MSSE116 (Table 7 No. 25)) was 0.125 µg/mL (≈ 0.0863 µM), the MIC (S. epidermidis MSSE; Staphylococcus epidermidis, strain S. ep MSSE118 (Table 8 No. 2)) was 1 µg/mL (≈ 0.69 µM) and the MIC (S. epidermidis MSSE; Staphylococcus epidermidis, strain S. ep MSSE119 (Table 7 No. 27)) was 0.125 µg/mL (≈ 0.0863 µM). It also gave an MIC (S. epidermidis MSSE; Staphylococcus epidermidis, strain S. ep MSSE137 (Table 8 No. 4)) of 1 µg/mL (≈ 0.69 µM), an MIC (S. epidermidis MSSE; Staphylococcus epidermidis, strain S. ep MSSE140 (Table 8 No. 3)) of 0.5 µg/mL (≈ 0.345 µM) and an MIC (S. epidermidis MSSE; Staphylococcus epidermidis, strain S. ep MSSE142 (Table 7 No. 26)) of 0.06 µg/mL (≈ 0.0414 µM). For the same compound, the MIC (S. epidermidis MSSE; Staphylococcus epidermidis, strain S. ep MSSE153 (Table 8 No. 1)) was 0.5 µg/mL (≈ 0.345 µM), the MICrange (S. epidermidis MRSE; S. ep MRSE (10 strains), clinically isolated) was 0.25 to 1 µg/mL and the MIC50 (S. epidermidis MRSE; [3]) was 1 µg/mL (≈ 0.69 µM). The MIC90 (S. epidermidis MRSE; [3]) was 1 µg/mL (≈ 0.69 µM), the MIC (S. epidermidis MRSE; Staphylococcus epidermidis, MRSE, strain S. ep MRSE4 (Table 8 No. 9)) was 1 µg/mL (≈ 0.69 µM) and the MIC (S. epidermidis MRSE; Staphylococcus epidermidis, MRSE, strain S. ep MRSE20 (Table 8 No. 6)) was 1 µg/mL (≈ 0.69 µM). The MIC (S. epidermidis MRSE; Staphylococcus epidermidis, MRSE, strain S. ep MRSE87 (Table 8 No. 13)) was 0.25 µg/mL (≈ 0.173 µM), the MIC (S. epidermidis MRSE; Staphylococcus epidermidis, MRSE, strain S. ep MRSE90 (Table 8 No. 10)) was 1 µg/mL (≈ 0.69 µM) and the MIC (S. epidermidis MRSE; Staphylococcus epidermidis, MRSE, strain S. ep MRSE101 (Table 8 No. 7)) was 1 µg/mL (≈ 0.69 µM). For the same compound, the MIC (S. epidermidis MRSE; Staphylococcus epidermidis, MRSE, strain S. ep MRSE105 (Table 8 No. 11)) was 0.5 µg/mL (≈ 0.345 µM), the MIC (S. epidermidis MRSE; Staphylococcus epidermidis, MRSE, strain S. ep MRSE140 (Table 8 No. 14)) was 1 µg/mL (≈ 0.69 µM) and the MIC (S. epidermidis MRSE; Staphylococcus epidermidis, MRSE, strain S. ep MRSE142 (Table 8 No. 12)) was 0.5 µg/mL (≈ 0.345 µM). It also gave an MIC (S. epidermidis MRSE; Staphylococcus epidermidis, MRSE, strain S. ep MRSE210 (Table 8 No. 15)) of 1 µg/mL (≈ 0.69 µM), an MIC (S. epidermidis MRSE; Staphylococcus epidermidis, MRSE, strain S. ep MRSE211 (Table 8 No. 8)) of 0.5 µg/mL (≈ 0.345 µM) and an MICrange ([2]; S. MSSA (11 strains), clinically isolated) of 0.5 to 1 µg/mL. The MIC50 ([2]; Staphylococcus aureus, MSSA) was 1 µg/mL (≈ 0.69 µM), the MIC90 ([2]; Staphylococcus aureus, MSSA) was 1 µg/mL (≈ 0.69 µM) and the MIC ([2]; Staphylococcus aureus, MSSA, strain S. MSSA 123 (Table 7 No. 3)) was 0.5 µg/mL (≈ 0.345 µM). For the same compound, the MIC ([2]; Staphylococcus aureus, MSSA, strain S. MSSA 187 (Table 7 No. 7)) was 0.5 µg/mL (≈ 0.345 µM), the MIC ([2]; Staphylococcus aureus, MSSA, strain S. MSSA 195 (Table 7 No. 6)) was 1 µg/mL (≈ 0.69 µM) and the MIC ([2]; Staphylococcus aureus, MSSA, strain S. MSSA 195 (Table 7 No. 12)) was 1 µg/mL (≈ 0.69 µM). For the same compound, the MIC ([2]; Staphylococcus aureus, MSSA, strain S. MSSA 201 (Table 7 No. 11)) was 1 µg/mL (≈ 0.69 µM), the MIC ([2]; Staphylococcus aureus, MSSA, strain S. MSSA 232 (Table 7 No. 2)) was 0.5 µg/mL (≈ 0.345 µM) and the MIC ([2]; Staphylococcus aureus, MSSA, strain S. MSSA 275 (Table 7 No. 10)) was 1 µg/mL (≈ 0.69 µM). For the same compound, the MIC ([2]; Staphylococcus aureus, MSSA, strain S. MSSA 466 (Table 7 No. 8)) was 0.5 µg/mL (≈ 0.345 µM), the MIC ([2]; Staphylococcus aureus, MSSA, strain S. MSSA 519 (Table 7 No. 9)) was 1 µg/mL (≈ 0.69 µM) and the MIC ([2]; Staphylococcus aureus, MSSA, strain S. MSSA 520 (Table 7 No. 4)) was 0.5 µg/mL (≈ 0.345 µM). The MIC ([2]; Staphylococcus aureus, MSSA, strain S. MSSA 580 (Table 7 No. 5)) was 1 µg/mL (≈ 0.69 µM).

Reference: patent publication US8916567B2, “Certain crystalline hydrates, pharmaceutical compositions thereof and methods for preparation and use thereof” (Universal Technology Alliance, Inc., priority 2009, dated 2014)
